Data taken from paper PMC7369900 (International Journal of Molecular Sciences, 2020).
Converted amounts (≈) assume the structure as drawn.

Experiments:
[1] = target: T1, yeast DNA topoisomerase II (Saccharomyces cerevisiae, UniProt P06786); assay: biochemical; type: biochemical; conditions: class; read-out: Topoisomerase II Inhibition
T1 construct: purchased Inspiralis (Norwich, UK)

[2] = tested on: C. albicans Gu4
[3] = Stability in PBS and growth media; type: physicochemical; conditions: phosphate-buffered saline and growth media used for antibacterial and antifungal tests
Excerpt: CIP-S-S-TP10-NH2 was stable in phosphate-buffered saline (PBS) and growth media used for the determination of antibacterial and antifungal in vitro activity.

[4] = tested on: S. aureus ATCC 29213; assay: microbe, parasite or virus in culture; type: cell-based, Staphylococcus aureus; conditions: S. aureus ATCC 29213, MHB
Description: (§1) The antibacterial activity of TP10-NH2-based conjugates, as well as its constituents, was evaluated by microdilution assay in Mueller Hinton broth, MHB (Table 1). […] There are, however, some exceptions. […] Its activity against two other tested bacteria was somewhat lower though.
(§2) The antibacterial activity (bacteriostatic: MIC and bactericidal: MBC) of the tested compounds was determined in MHB (Mueller Hinton Broth, Sigma Aldrich, St. Louis, MO, USA) using a serial two-fold dilution method in 96-well microtiter plates according to CLSI recommendations, described in M07-A10 document. The exact conditions have been described previously. All experiments were performed in three replicates. The MIC90 and MIC50 values were defined as the concentrations of compounds tested that caused a 90% or 50% reduction of growth, respectively, comparing to the drug-free control.

[5] = tested on: C. glabrata DSM 11226
[6] = tested on: LLC-PK1; assay: cells; type: cell-based, pig; conditions: LLC-PK1, 72 h, MTT
Description: (§3) Among the conjugates, LVXC-S-S-CTP10-NH2 (5) was the least cytotoxic. […] In the case of HEK 293 and LLC-PK1 cells, the IC50 values of 5 were nearly four times higher. […] Additionally, we noted that the cancer cells Hep G2 were less sensitive to the action of the given compounds than the non-cancer cells (HEK 293 and LLC-PK1).
(§4) Cytotoxicity was assessed against three mammalian cell lines: LLC-PK1, Hep G2, and HEK 293. Multiwell (96–well) plates were seeded at 7000 cells/well in Medium 199 supplemented with 7.5% FBS, MEM Eagle’s medium supplemented with 10% FBS, or DMEM medium supplemented with 10% FBS, respectively. All media were supplemented with L-glutamine and antibiotics (penicillin/streptomycin). Cells were allowed to attach overnight. Drugs were dissolved in cell culture medium and added to wells in 100-µL aliquots of 2× concentrated solutions, in triplicates. To control wells, 100 µL of the medium were added. Cells were incubated with the studied compounds for 72 h at 37 °C and 95%/5% or 90%/10% (HEK 293 cells) CO2 atmosphere. Then, 20-µL aliquots of MTT solution in PBS (4 mg/mL) were added to all wells and plates were incubated further for 3 h in 37 °C. Formazan crystals formed were dissolved in 100 µL of DMSO and the absorbance of the solutions was measured using a multiwell plate reader (Spark, Tecan, Männedorf, Switzerland) at λ = 540 nm. Cytotoxicity was determined compared to the drug-free control. All experiments were performed in triplicates.

[7] = tested on: E. coli ATCC 25922; assay: microbe, parasite or virus in culture; type: cell-based, Escherichia coli; conditions: E. coli ATCC 25922, MHB
Description: as §1, §2

[8] = tested on: C. krusei DSM 6128
[9] = tested on: S. aureus ATCC 25,923 cells; assay: Stability inside bacterial cells (LC-MS of cell lysate)
[10] = tested on: S. epidermidis ATCC 12228; assay: microbe, parasite or virus in culture; type: cell-based, Staphylococcus epidermidis; conditions: S. epidermidis ATCC 12228, MHB
Description: as §1, §2

[11] = tested on: HL-60 and HEK 293 cells; assay: ROS generation, statements not split by cell line; type: cell-based, human; conditions: cell line not specified
Description: (§5) In the positive controls treated with H2O2, the fraction of ROS-positive cells exceeded 75%. […] Strikingly, in HL-60, a biologically significant effect was observed almost immediately (after 15 min of incubation). The same was noted after 1 h in the HEK 293 cell line. […] Similarly, conjugates 4 and 5 generated ROS at the low level (less than 15% for HL-60 and less than 20% for HEK 293) (manuscript in preparation). […] For HL-60, the critical level of ROS was noted after 15 min of incubation.
(§6) ROS generation activity was evaluated as described previously. Briefly, HEK 293 cells were seeded on 35-mm Petri dishes in the amount of 15,000 cells per plate for 24 h in DMEM medium. […] Positive controls contained 250 µM H2O2, while negative controls were without any additions. After 0.5, 2.5, 5.5, and 24 h of incubation at 37 °C, the CM-H2DCFDA molecular probe (Thermo Fischer Scientific, Waltham, USA) was added to the plates and incubation was continued for another 0.5 h. The HEK 293 cells were detached with 0.05% trypsin solution in PBS and HBSS (Hank’s Balanced Salt Solution) and suspended in fresh DMEM medium. All samples were additionally stained with 7-AAD (7-aminoactinomycin D, 0.8 µg/mL) and immediately analysed with a Guava easyCyte flow cytometer (Merc, Burlington, USA). The determinations were performed in triplicates.

[12] = tested on: Hep G2; assay: cells; type: cell-based, human; conditions: Hep G2, 72 h, MTT
Description: as §3, §4

[13] = tested on: HEK 293; assay: cells; type: cell-based, human; conditions: HEK 293, 72 h, MTT
Description: as §3, §4

[14] = tested on: C. albicans SC 5314
[15] = tested on: P. aeruginosa ATCC 27853; assay: microbe, parasite or virus in culture; type: cell-based, Pseudomonas aeruginosa; conditions: P. aeruginosa ATCC 27853, MHB
Description: as §1, §2

[16] = tested on: C. albicans Δopt1Δopt5Δptr2Δptr22
[17] = tested on: HL-60; assay: ROS generation (CM-H2DCFDA, flow cytometry); type: cell-based, human; conditions: positive cells in 24 h, class
Description: as §5, §6

[18] = tested on: HEK 293; assay: ROS generation (CM-H2DCFDA, flow cytometry); type: cell-based, human; conditions: positive cells in 24 h, class
Description: as §5, §6

[19] = tested on: bacteria; assay: Influence of salts: antibacterial activity in MHB2 compared to MHB; type: cell-based; conditions: MHB2: Ca(II) 20–25 mg/L, Mg(II) 10–12.5 mg/L
Description: Additionally, for selected compounds, the aspect of the influence of salts present in the medium on antimicrobial activity was evaluated. […] In the salt-enriched medium, the MIC values determined for TP10-NH2 were up to 40-fold higher than those found in MHB. The phenomenon of reduction of the growth inhibitory activity of antimicrobial peptides at a high salt concentration was previously evidenced by other researchers. It may cause severe limitations for AMPs’ usage as therapeutic agents because of the risk of potential inactivation by salts present in the human body.

[20] = tested on: Gram-positive and Gram-negative bacteria; type: cell-based; conditions: MHB, four bacteria
Description: as §1, §2

[21] = tested on: human red blood cells; assay: Hemolysis assay; conditions: 1 h, 37 °C

T1 sequence (P06786 whole entry): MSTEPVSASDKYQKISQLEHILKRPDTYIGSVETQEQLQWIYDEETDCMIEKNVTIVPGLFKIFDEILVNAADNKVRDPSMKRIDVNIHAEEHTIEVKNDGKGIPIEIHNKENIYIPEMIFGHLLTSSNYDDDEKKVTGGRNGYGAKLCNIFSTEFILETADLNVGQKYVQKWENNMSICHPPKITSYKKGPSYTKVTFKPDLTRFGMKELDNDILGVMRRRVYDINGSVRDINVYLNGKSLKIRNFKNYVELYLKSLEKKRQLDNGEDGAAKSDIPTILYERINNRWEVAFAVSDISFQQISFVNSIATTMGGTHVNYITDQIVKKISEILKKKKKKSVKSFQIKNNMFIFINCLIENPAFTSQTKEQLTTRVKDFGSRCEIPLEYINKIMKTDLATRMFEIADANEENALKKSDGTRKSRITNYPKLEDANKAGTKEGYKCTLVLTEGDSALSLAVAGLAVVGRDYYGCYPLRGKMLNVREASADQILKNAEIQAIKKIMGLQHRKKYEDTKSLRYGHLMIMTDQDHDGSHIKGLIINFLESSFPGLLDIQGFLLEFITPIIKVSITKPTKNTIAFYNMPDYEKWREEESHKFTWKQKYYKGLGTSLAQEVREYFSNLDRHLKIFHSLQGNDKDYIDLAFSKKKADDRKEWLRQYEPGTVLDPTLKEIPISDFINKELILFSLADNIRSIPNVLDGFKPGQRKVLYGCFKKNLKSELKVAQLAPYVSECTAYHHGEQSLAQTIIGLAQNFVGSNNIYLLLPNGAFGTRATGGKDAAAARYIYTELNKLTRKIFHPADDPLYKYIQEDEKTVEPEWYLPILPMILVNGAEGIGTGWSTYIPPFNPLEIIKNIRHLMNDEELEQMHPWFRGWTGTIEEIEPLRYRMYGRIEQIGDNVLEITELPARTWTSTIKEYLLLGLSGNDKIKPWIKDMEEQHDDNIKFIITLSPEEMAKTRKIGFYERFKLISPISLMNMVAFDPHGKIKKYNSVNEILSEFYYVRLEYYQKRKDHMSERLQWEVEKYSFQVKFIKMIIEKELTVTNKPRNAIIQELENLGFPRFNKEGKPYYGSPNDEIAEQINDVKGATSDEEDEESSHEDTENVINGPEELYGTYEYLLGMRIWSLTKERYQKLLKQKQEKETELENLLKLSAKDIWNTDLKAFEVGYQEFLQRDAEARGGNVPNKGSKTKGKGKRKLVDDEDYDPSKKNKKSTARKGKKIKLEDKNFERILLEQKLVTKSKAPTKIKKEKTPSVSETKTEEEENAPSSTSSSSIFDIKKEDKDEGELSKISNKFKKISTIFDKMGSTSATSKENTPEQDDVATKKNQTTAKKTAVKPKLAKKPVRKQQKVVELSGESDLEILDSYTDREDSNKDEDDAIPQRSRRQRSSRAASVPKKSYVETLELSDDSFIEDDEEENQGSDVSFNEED

SMILES: CC[C@H](C)[C@H](NC(=O)[C@H](CCCCN)NC(=O)[C@H](CCCCN)NC(=O)[C@H](C)NC(=O)[C@H](CC(C)C)NC(=O)[C@H](C)NC(=O)[C@H](C)NC(=O)[C@H](CC(C)C)NC(=O)[C@H](C)NC(=O)[C@H](CCCCN)NC(=O)[C@H](CC(C)C)NC(=O)[C@H](CC(N)=O)NC(=O)[C@@H](NC(=O)[C@H](CCCCN)NC(=O)CNC(=O)[C@H](CC(C)C)NC(=O)[C@H](CC(C)C)NC(=O)[C@H](Cc1ccc(O)cc1)NC(=O)CNC(=O)[C@H](C)NC(=O)CCSSCCC(=O)N1CCN(c2cc3c(cc2F)c(=O)c(C(=O)O)cn3C2CC2)CC1)[C@@H](C)CC)C(=O)N[C@@H](CC(C)C)C(N)=O [Compound 3, CIP-S-S-TP10-NH2]
- IC50 [1]: < 50 µM
- MIC50 [2]: 6.25 µM (≈ 16.8 µg/mL)
- Stability in PBS and growth media [3]: stable
- MIC50 [4]: 0.8 µM (≈ 2.15 µg/mL)
- MIC90 [4]: 0.8 µM (≈ 2.15 µg/mL)
- MIC50 [5]: >200 µM
- IC50 [6]: 16.8 ± 2.62 µM
- MIC50 [7]: 0.0125 µM (≈ 0.0336 µg/mL)
- MIC90 [7]: 0.025 µM (≈ 0.0672 µg/mL)
- MIC50 [8]: 25 µM (≈ 67.2 µg/mL)
- Stability inside bacterial cells [9]: reduced inside the cell
- MIC50 [10]: 0.8 µM (≈ 2.15 µg/mL)
- MIC90 [10]: 0.8 µM (≈ 2.15 µg/mL)
- ROS generation [11]: no ROS generation was observed
- IC50 [12]: 19 ± 2.08 µM
- IC50 [13]: 13.1 ± 1.22 µM
- MIC50 [14]: 6.25 µM (≈ 16.8 µg/mL)
- MIC90 [14]: 25 µM (≈ 67.2 µg/mL)
- MIC50 [15]: 0.8 µM (≈ 2.15 µg/mL)
- MIC90 [15]: 1.6 µM (≈ 4.3 µg/mL)
- MIC50 [16]: 12.5 µM (≈ 33.6 µg/mL)
- MIC90 [16]: 25 µM (≈ 67.2 µg/mL)
- ROS HL-60 [17]: + (+ <15% positive cells in 24 h)
- ROS HEK 293 [18]: ++ (++ <10% positive cells in 24 h)

SMILES: CC[C@H](C)[C@H](NC(=O)[C@H](CCCCN)NC(=O)[C@H](CCCCN)NC(=O)[C@H](C)NC(=O)[C@H](CC(C)C)NC(=O)[C@H](C)NC(=O)[C@H](C)NC(=O)[C@H](CC(C)C)NC(=O)[C@H](C)NC(=O)[C@H](CCCCN)NC(=O)[C@H](CC(C)C)NC(=O)[C@H](CC(N)=O)NC(=O)[C@@H](NC(=O)[C@H](CCCCN)NC(=O)CNC(=O)[C@H](CC(C)C)NC(=O)[C@H](CC(C)C)NC(=O)[C@H](Cc1ccc(O)cc1)NC(=O)CNC(=O)[C@H](C)NC(=O)CN1CCN(c2cc3c(cc2F)c(=O)c(C(=O)O)cn3C2CC2)CC1)[C@@H](C)CC)C(=O)N[C@@H](CC(C)C)C(N)=O [Compound 1, CIP-CH2CO-TP10-NH2]
- MIC50 [2]: 50 µM (≈ 128 µg/mL)
- MIC50 [4]: 12.5 µM (≈ 31.9 µg/mL)
- MIC90 [4]: 12.5 µM (≈ 31.9 µg/mL)
- MIC50 [5]: >200 µM
- IC50 [6]: 17.8 ± 1.93 µM
- MIC50 [7]: 25 µM (≈ 63.8 µg/mL)
- MIC90 [7]: 25 µM (≈ 63.8 µg/mL)
- MIC50 [8]: 50 µM (≈ 128 µg/mL)
- MIC50 [10]: 6.25 µM (≈ 16 µg/mL)
- MIC90 [10]: 12.5 µM (≈ 31.9 µg/mL)
- IC50 [12]: 21.7 ± 2.18 µM
- IC50 [13]: 10.8 ± 1.87 µM
- Influence of salts (MHB2 vs MHB) on antibacterial activity [19]: slight decrease of antibacterial activity
- MIC50 [14]: 50 µM (≈ 128 µg/mL)
- MIC90 [14]: 100 µM (≈ 255 µg/mL)
- MIC50 [15]: >100 µM
- MIC90 [15]: >100 µM
- MIC50 [16]: 100 µM (≈ 255 µg/mL)
- MIC90 [16]: 200 µM (≈ 511 µg/mL)

SMILES: CC[C@H](C)[C@H](NC(=O)[C@H](CCCCN)NC(=O)[C@H](CCCCN)NC(=O)[C@H](C)NC(=O)[C@H](CC(C)C)NC(=O)[C@H](C)NC(=O)[C@H](C)NC(=O)[C@H](CC(C)C)NC(=O)[C@H](C)NC(=O)[C@H](CCCCN)NC(=O)[C@H](CC(C)C)NC(=O)[C@H](CC(N)=O)NC(=O)[C@@H](NC(=O)[C@H](CCCCN)NC(=O)CNC(=O)[C@H](CC(C)C)NC(=O)[C@H](CC(C)C)NC(=O)[C@H](Cc1ccc(O)cc1)NC(=O)CNC(=O)[C@H](C)NC(=O)c1cn(C2CC2)c2cc(N3CCNCC3)c(F)cc2c1=O)[C@@H](C)CC)C(=O)N[C@@H](CC(C)C)C(N)=O [Compound 2, CIP-TP10-NH2]
- MIC50 [2]: 25 µM (≈ 62.4 µg/mL)
- MIC50 [4]: 0.8 µM (≈ 2 µg/mL)
- MIC90 [4]: 0.8 µM (≈ 2 µg/mL)
- MIC50 [5]: >200 µM
- MIC values, range over tested bacteria [20]: 0.8 to 3.125 µM
- IC50 [6]: 27.1 ± 1.82 µM
- MIC50 [7]: 1.6 µM (≈ 3.99 µg/mL)
- MIC90 [7]: 1.6 µM (≈ 3.99 µg/mL)
- MHC50 (concentration causing 50% hemolysis) [21]: 25 µg/mL
- MHC50 (concentration causing 50% hemolysis) ([21]; converted from μg/mL): ~ 10 μM
- MIC50 [8]: 50 µM (≈ 125 µg/mL)
- MIC50 [10]: 1.6 µM (≈ 3.99 µg/mL)
- MIC90 [10]: 1.6 µM (≈ 3.99 µg/mL)
- ROS generation [11]: no ROS generation was observed
- IC50 [12]: 11.5 ± 2.03 µM
- IC50 [13]: 10.4 ± 1.39 µM
- MIC50 [14]: 12.5 µM (≈ 31.2 µg/mL)
- MIC90 [14]: 12.5 µM (≈ 31.2 µg/mL)
- MIC50 [16]: 6.25 µM (≈ 15.6 µg/mL)
- MIC90 [16]: 12.5 µM (≈ 31.2 µg/mL)
- ROS HL-60 [17]: ++ (++ <10% positive cells in 24 h)
- ROS HEK 293 [18]: ++ (++ <10% positive cells in 24 h)
